For this assay, the target named is T1, IGF-1R Ba/F3 (Homo sapiens, UniProt P08069).
T1 construct: fused on or other part: TEL- (or BCR-) IGF-1R in Ba/F3: the kinase part holds the site
In words: Ba/F3 Cell Viability Inhibition Assay (IGF-1R Ba/F3). Type of assay: cell-based, murine. The note with it: Tel-TK transformed Ba/F3 cells, 48 hours, Britelite luminescence. From the text:
The IC50 of a drug may be determined constructing a dose-response curve and examining the effect of different concentrations of antagonist on reversing agonist activity. IC50 values may be calculated for a given antagonist by determining the concentration needed to inhibit half of the maximum biological response of the agonist. To calculate IC50 values, a series of dose-response data (e.g., drug concentrations x1, x2, . . . , xn and growth inhibition y1, y2, . . . , yn, the values of y are in the range of 0-1) is generated. IC50 values may be determined by a computer-aided system using the formula: y=D+((A−D)/(1+10^(x-log(IC50)B) • where A is the ratio of growth inhibition between lowest drug concentration and control; B is the slope of sigmoidal curvel; and D is the ratio of growth inhibition between highest drug concentration and control.
Ba/F3 is a murine IL-3-dependent pro-B lymphoma cell line. Parental Ba/F3 cells are used to generate a panel of sublines whose proliferation and survival is rendered IL-3-independent by stable transduction with individual tyrosine kinases activated by fusion with the amino-terminal portion of TEL (amino acid 1-375) or BCR. In order to generate Ba/F3 cell lines transformed by Tel-Tyrosine Kinase (TK) fusions, parental Ba/F3 cells are infected with a retrovirus harboring each TEL-fusion kinase and subjected to puromycin selection and IL-3 withdrawal to obtain IL-3-independent, transformed Ba/F3 cells.
Each transformed Ba/F3 cells are cultured in RPMI-1640 media (Gibco Cat #11875093, Carlsbad, Calif.) supplemented with 10% FBS (Hyclone Cat #SV30014.03, Logan, Utah), 4.5 g/L glucose (Sigma #G5400, St. Louis, Mo.), 1.5 g/L sodium bicarbonate (Biowhittaker #17-613E, Walkersville, Md.) and Pen/Strep (Gibco #10378-016, Carlsbad, Calif.). Cells are splitted twice weekly.
The potency of test compounds against various Tel-TK transformed Ba/F3 lines is determined as follows. Exponentially growing BaF3 Tel-TK cells are diluted in fresh medium to 75,000 cells/mL and seeded into 384-well plates (3750 cells/well) at 50 μL/well using a μFill liquid dispenser (BioTek, Winooski, Vt., USA). Duplicate plates are run for each cell line. Test and control compounds are serially diluted with DMSO and arrayed in a polypropylene 384-well plate. […] of compound is transferred into the assay plates using a pin-transfer device, and the plates are incubated at 37° C. (5% CO2) for 48 hours. 25 μL Britelite (Perkin Elmer) is added and luminescence is quantified using Analyst GT (Molecular Devices). Custom curve-fitting software is used to produce a logistic fit of percent cell viability as a function of the logarithm of inhibitor concentration. The IC50 is interpolated as the concentration of compound needed to reduce cell viability to 50% of a DMSO control. Parental Ba/F3 cells that are maintained and cultured in presence of IL-3 (1 ng/ml in final) are diluted in fresh medium containing IL-3 (1 ng/ml in final) to 75,000 cells/mL following the same procedure as described above.

In general, IC50 refers to the midpoint of a concentration-inhibition curve. Higher therefore signals a need for much substance.

T1 sequence (P08069 999-1274 limits assumed): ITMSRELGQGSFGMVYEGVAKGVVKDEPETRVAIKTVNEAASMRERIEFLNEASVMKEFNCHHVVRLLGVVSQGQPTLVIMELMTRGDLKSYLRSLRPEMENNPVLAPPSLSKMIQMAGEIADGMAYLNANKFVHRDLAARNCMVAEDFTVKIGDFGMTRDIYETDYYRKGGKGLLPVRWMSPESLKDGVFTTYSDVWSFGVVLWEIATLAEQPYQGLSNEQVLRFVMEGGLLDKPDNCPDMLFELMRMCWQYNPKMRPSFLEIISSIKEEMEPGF

As for `Cc1cc(Nc2nc(Nc3cc(C)c(C4CCN(S(=O)(=O)C5CC5)CC4)cc3F)ncc2Cl)n[nH]1` [Compound 64, 5-chloro-N2-(4-(1-(cyclopropylsulfonyl)piperidin-4-yl)-2-fluoro-5-methylphenyl)-N4-(5-methyl-1H-pyrazol-3-yl)pyrimidine-2,4-diamine], the IC50 was found to be 59 nM.
Take `CCNC1(C(=O)N2CCC(c3cc(F)c(Nc4ncc(Cl)c(Nc5cc(C)[nH]n5)n4)cc3C)CC2)CC1` [Compound 169, (4-(4-(5-chloro-4-(5-methyl-1H-pyrazol-3-ylamino)pyrimidin-2-ylamino)-5-fluoro-2-methylphenyl)piperidin-1-yl)(1-(ethylamino)cyclopropyl)methanone]: the IC50 came out at 4 nM.
With `Cc1cc(Nc2nc(Nc3cc(C)c(C4CCN(C5CCC6(CC5)OCCO6)CC4)cc3F)ncc2Cl)n[nH]1` [Compound 283, N2-(4-(1-(1,4-dioxaspiro[4.5]decan-8-yl)piperidin-4-yl)-2-fluoro-5-methylphenyl)-5-chloro-N4-(5-methyl-1H-pyrazol-3-yl)pyrimidine-2,4-diamine], half-maximal inhibition (IC50) was put at 16 nM.
In turn, `CC(=O)N1CCC(c2cc(C)c(Nc3ncc(Cl)c(Nc4cc(C)[nH]n4)n3)cc2C)CC1` [Compound 110, 1-(4-(4-(5-chloro-4-(5-methyl-1H-pyrazol-3-ylamino)pyrimidin-2-ylamino)-2,5-dimethylphenyl)piperidin-1-yl)ethanone] displayed an IC50 of 13 nM.
In the case of `Cc1cc(Nc2nc(Nc3cc(C)c(C4CCN(C(=O)[C@H]5CCCN5C(C)C)CC4)cc3F)ncc2Cl)n[nH]1` [Compound 135, (R)-(4-(4-(5-chloro-4-(5-methyl-1H-pyrazol-3-ylamino)pyrimidin-2-ylamino)-5-fluoro-2-methylphenyl)piperidin-1-yl)(1-isopropylpyrrolidin-2-yl)methanone] it was 48 nM.
The result for `Cc1cc(Nc2nc(Nc3cc(C)c(C4CCN(C(=O)[C@]5(C)CCCN5)CC4)cc3F)ncc2Cl)n[nH]1` [Compound 138, (S)-(4-(4-(5-chloro-4-(5-methyl-1H-pyrazol-3-ylamino)pyrimidin-2-ylamino)-5-fluoro-2-methylphenyl)piperidin-1-yl)(2-methylpyrrolidin-2-yl)methanone] reads 91 nM; that for `Cc1cc(Nc2nc(Nc3cc(Cl)c(C4CCN(C5CCS(=O)(=O)C5)CC4)cc3C)ncc2Cl)n[nH]1` (centres unmarked) [Compound 144, 5-chloro-N^2-(2-methyl-5-chloro-4-(1-(tetrahydro-1,1-dioxido-3-thienyl)piperidin-4-yl)phenyl)-N^4-(5-methyl-1H-pyrazol-3-yl)pyrimidine-2,4-diamine], 7 nM; that for `Cc1cc(Nc2nc(Nc3cc(C)c(C4CCN(C(=O)N(C)C)CC4)cc3F)ncc2Cl)n[nH]1` [Compound 69, 4-(4-(5-Chloro-4-(5-methyl-1H-pyrazol-3-ylamino)pyrimidin-2-ylamino)-5-fluoro-2-methylphenyl)-N,N-dimethylpiperidine-1-carboxamide], 11 nM.
The result for `Cc1cc(Nc2nc(Nc3cc(C)c(C4CCCN(C[C@H](O)C(F)(F)F)C4)cc3C)ncc2Cl)n[nH]1` (stereo partly drawn) [Compound 201, (2S)-3-(3-(4-(5-chloro-4-(5-methyl-1H-pyrazol-3-ylamino)pyrimidin-2-ylamino)-2,5-dimethylphenyl)piperidin-1-yl)-1,1,1-trifluoropropan-2-ol] reads 46 nM; that for `Cc1cc(Nc2nc(Nc3cc(C)c(C4CCN(C(=O)CN(C)C)CC4)cc3F)ncc2Cl)n[nH]1` [Compound 73, 1-(4-(4-(5-chloro-4-(5-methyl-1H-pyrazol-3-ylamino)pyrimidin-2-ylamino)-5-fluoro-2-methylphenyl)piperidin-1-yl)-2-(dimethylamino)ethanone], 19 nM.
For `Cc1cc(Nc2nc(Nc3cc(C)c(C4CCN(C(=O)c5nc(C(C)C)no5)CC4)cc3C)ncc2Cl)n[nH]1` [Compound 270, (4-(4-(5-chloro-4-(5-methyl-1H-pyrazol-3-ylamino)pyrimidin-2-ylamino)-2,5-dimethylphenyl)piperidin-1-yl)(3-isopropyl-1,2,4-oxadiazol-5-yl)methanone], the half-maximal inhibitory concentration (IC50) was determined as 18 nM. The IC50 values of the last two compounds are within 1.5-fold of each other.
